In BindingDB's records for doi:10.1111/cbdd.12307 (Peking University, 2014):
pIC50: −log10 of the molar value.

The compounds below were run against T1, Phospholipase A2, membrane associated (Homo sapiens, UniProt P14555) (assay: Inhibitory Activity Assay). Details: pH 8.
T1 sequence (P14555 whole entry): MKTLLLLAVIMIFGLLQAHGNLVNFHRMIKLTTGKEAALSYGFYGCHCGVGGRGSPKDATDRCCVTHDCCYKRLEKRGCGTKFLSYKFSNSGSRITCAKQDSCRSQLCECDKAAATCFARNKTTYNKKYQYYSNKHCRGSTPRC
Procedure: The reaction mixture contained 160 uL of reaction buffer [50 mM Tris-HCl (pH 8.0), 100 mM NaCl, 5 ug/mL bovine serum albumin (BSA), 5 uM CaCl2, and 10 mM anilinonaphthalene sulfonate (ANS)], 20 uL of substrate stock solution (2 mM DMPC), and 2 mM of sodium deoxycholate in water. After 5 min of sonication, 10 uL of inhibitor stock solution (in DMSO) were incubated at 28 uC for 10 min. The reactions were started by adding 10 uL of hnps-PLA2 stock solution (0.1 mg/mL) and monitored by excitation at 377 nm and emission at 470 nm.

| SMILES | pIC50 |
| --- | --- |
| O=C(N[C@@H](Cc1ccc([NH+]([O-])O)cc1)C(=O)O)OCC1c2ccccc2-c2ccccc21 (some centres not stated) [DCSD 001360 (3)] | 4.67 |
| O=C(N[C@@H](Cc1ccc(O)c([NH+]([O-])O)c1)C(=O)O)OCC1c2ccccc2-c2ccccc21 (some centres not stated) [DCSD 002267 (4)] | 4.39 |
| O=C(N[C@H](Cc1ccccc1)C(=O)O)OCC1c2ccccc2-c2ccccc21 [DCSD 002855 (1)] | 4.32 |
| O=C(CCc1ccccc1)CC[C@H](NC(=O)OCC1c2ccccc2-c2ccccc21)C(=O)O [DCSD 001850 (5)] | 4.46 |
| O=C(COc1ccc(/C=N/NC(=O)c2ccccc2[NH+]([O-])O)cc1)Nc1cccc([NH+]([O-])O)c1 (configuration not stated) [SPECS AG-690/40696769 (6)] | 5.05 |
| O=C(N[C@H](Cc1ccc2ccccc2c1)C(=O)O)OCC1c2ccccc2-c2ccccc21 [DCSD 002847 (2)] | 5.07 |
| O=C(COc1ccc2ccccc2c1)N/N=C/c1cccc(OC(=O)c2cc([NH+]([O-])O)cc([NH+]([O-])O)c2)c1 (configuration not stated) [SPECS AG-690/40108589 (7)] | 4.91 |
